Laboratory results published in ChEMBL document CHEMBL2440076, “New triarylpyrazoles as broad-spectrum anticancer agents: design, synthesis, and biological evaluation” (Eur J Med Chem, 2013).

Columns and labels:
Format in all cases: functional
[1] = system: K562; experiment: Growth inhibition of human K562 cells assessed as cell growth at 10^-7 M after 48 hrs by sulforhodamine B assay; details: K562, 48 h, read-out: Activity
[2] = system: HCT-116; experiment: Growth inhibition of human HCT116 cells assessed as cell growth at 10^-6 M after 48 hrs by sulforhodamine B assay; details: HCT-116, 48 h, read-out: Activity
[3] = system: NCI-H23; experiment: Growth inhibition of human NCI-H23 cells assessed as cell growth at 10^-7 M after 48 hrs by sulforhodamine B assay; details: NCI-H23, 48 h, read-out: Activity
[4] = system: SK-MEL-28; experiment: Growth inhibition of human SK-MEL-28 cells assessed as cell growth at 10^-8 M after 48 hrs by sulforhodamine B assay; details: SK-MEL-28, 48 h, read-out: Activity
[5] = system: LOX IMVI; experiment: Growth inhibition of human LOXIMVI cells assessed as cell growth at 10^-7 M after 48 hrs by sulforhodamine B assay; details: read-out: Activity
[6] = system: SF-295; experiment: Growth inhibition of human SF295 cells assessed as cell growth at 10^-7 M after 48 hrs by sulforhodamine B assay; details: SF-295, 48 h, read-out: Activity
[7] = system: SNB-75; experiment: Growth inhibition of human SNB75 cells assessed as cell growth at 10^-5 M after 48 hrs by sulforhodamine B assay; details: SNB-75, 48 h, read-out: Activity
[8] = system: MOLT-4; experiment: Growth inhibition of human MOLT4 cells assessed as cell growth at 10^-8 M after 48 hrs by sulforhodamine B assay; details: MOLT-4, 48 h, read-out: Activity
[9] = system: Malme-3M; experiment: Growth inhibition of human MALME-3M cells assessed as cell growth at 10^-7 M after 48 hrs by sulforhodamine B assay; details: read-out: Activity
[10] = system: UACC-62; experiment: Growth inhibition of human UACC62 cells assessed as cell growth at 10^-8 M after 48 hrs by sulforhodamine B assay; details: UACC-62, 48 h, read-out: Activity
[11] = system: TK-10; experiment: Growth inhibition of human TK10 cells assessed as cell growth at 10^-7 M after 48 hrs by sulforhodamine B assay; details: TK-10, 48 h, read-out: Activity
[12] = system: NCI-H23; experiment: Growth inhibition of human NCI-H23 cells assessed as cell growth at 10^-4 M after 48 hrs by sulforhodamine B assay; details: NCI-H23, 48 h, read-out: Activity
[13] = system: SK-OV-3; experiment: Growth inhibition of human SKOV3 cells assessed as cell growth at 10^-7 M after 48 hrs by sulforhodamine B assay; details: SK-OV-3, 48 h, read-out: Activity
[14] = system: NCI-H23; experiment: Growth inhibition of human NCI-H23 cells assessed as cell growth at 10^-6 M after 48 hrs by sulforhodamine B assay; details: NCI-H23, 48 h, read-out: Activity
[15] = system: HCT-116; experiment: Growth inhibition of human HCT116 cells assessed as cell growth at 10^-4 M after 48 hrs by sulforhodamine B assay; details: HCT-116, 48 h, read-out: Activity
[16] = system: MDA-MB-468; experiment: Growth inhibition of human MDA-MB-468 cells assessed as cell growth at 10^-7 M after 48 hrs by sulforhodamine B assay; details: MDA-MB-468, 48 h, read-out: Activity
[17] = system: SR; experiment: Growth inhibition of human SR cells assessed as cell growth at 10^-6 M after 48 hrs by sulforhodamine B assay; details: read-out: Activity
[18] = system: SK-MEL-5; experiment: Growth inhibition of human SK-MEL-5 cells assessed as cell growth at 10^-6 M after 48 hrs by sulforhodamine B assay; details: SK-MEL-5, 48 h, read-out: Activity
[19] = system: M14; experiment: Growth inhibition of human M14 cells assessed as cell growth at 10^-8 M after 48 hrs by sulforhodamine B assay; details: M14, 48 h, read-out: Activity
[20] = system: NCI-H522; experiment: Growth inhibition of human NCI-H522 cells assessed as cell growth at 10^-4 M after 48 hrs by sulforhodamine B assay; details: NCI-H522, 48 h, read-out: Activity
[21] = system: SN12C; experiment: Growth inhibition of human SN12C cells assessed as cell growth at 10^-5 M after 48 hrs by sulforhodamine B assay; details: read-out: Activity
[22] = system: OVCAR-4; experiment: Growth inhibition of human OVCAR4 cells assessed as cell growth at 10^-7 M after 48 hrs by sulforhodamine B assay; details: OVCAR-4, 48 h, read-out: Activity
[23] = system: SF-268; experiment: Growth inhibition of human SF268 cells assessed as cell growth at 10^-8 M after 48 hrs by sulforhodamine B assay; details: SF-268, 48 h, read-out: Activity
[24] = system: SK-MEL-5; experiment: Growth inhibition of human SK-MEL-5 cells assessed as cell growth at 10^-4 M after 48 hrs by sulforhodamine B assay; details: SK-MEL-5, 48 h, read-out: Activity
[25] = system: Malme-3M; experiment: Growth inhibition of human MALME-3M cells assessed as cell growth at 10^-5 M after 48 hrs by sulforhodamine B assay; details: read-out: Activity
[26] = system: SN12C; experiment: Growth inhibition of human SN12C cells assessed as cell growth at 10^-7 M after 48 hrs by sulforhodamine B assay; details: read-out: Activity
[27] = system: HCT-116; experiment: Growth inhibition of human HCT116 cells assessed as cell growth at 10^-7 M after 48 hrs by sulforhodamine B assay; details: HCT-116, 48 h, read-out: Activity
[28] = system: SW-620; experiment: Growth inhibition of human SW620 cells assessed as cell growth at 10^-8 M after 48 hrs by sulforhodamine B assay; details: SW-620, 48 h, read-out: Activity
[29] = Growth inhibition of human Hs 578T cells assessed as cell growth at 10^-7 M after 48 hrs by sulforhodamine B assay; details: read-out: Activity
[30] = system: CAKI-1; experiment: Growth inhibition of human CAKI-1 cells assessed as cell growth at 10^-4 M after 48 hrs by sulforhodamine B assay; details: CAKI-1, 48 h, read-out: Activity
[31] = system: SW-620; experiment: Growth inhibition of human SW620 cells assessed as cell growth at 10^-4 M after 48 hrs by sulforhodamine B assay; details: SW-620, 48 h, read-out: Activity
[32] = system: HOP-92; experiment: Growth inhibition of human HOP92 cells assessed as cell growth at 10^-5 M after 48 hrs by sulforhodamine B assay; details: HOP-92, 48 h, read-out: Activity
[33] = system: SK-MEL-2; experiment: Growth inhibition of human SK-MEL-2 cells assessed as cell growth at 10^-5 M after 48 hrs by sulforhodamine B assay; details: SK-MEL-2, 48 h, read-out: Activity
[34] = system: SW-620; experiment: Growth inhibition of human SW620 cells assessed as cell growth at 10^-7 M after 48 hrs by sulforhodamine B assay; details: SW-620, 48 h, read-out: Activity
[35] = system: TK-10; experiment: Growth inhibition of human TK10 cells assessed as cell growth at 10^-6 M after 48 hrs by sulforhodamine B assay; details: TK-10, 48 h, read-out: Activity
[36] = system: A498; experiment: Growth inhibition of human A498 cells assessed as cell growth at 10^-5 M after 48 hrs by sulforhodamine B assay; details: A498, 48 h, read-out: Activity
[37] = system: PC-3; experiment: Growth inhibition of human PC3 cells assessed as cell growth at 10^-4 M after 48 hrs by sulforhodamine B assay; details: PC-3, 48 h, read-out: Activity
[38] = Growth inhibition of human Hs 578T cells assessed as cell growth at 10^-8 M after 48 hrs by sulforhodamine B assay; details: read-out: Activity

| Structure (SMILES) | growth at 0.1 µM [1] [%] | growth at 1 µM [2] [%] | growth at 0.1 µM [3] [%] | growth at 0.01 µM [4] [%] | growth at 0.1 µM [5] [%] | growth at 0.1 µM [6] [%] | growth at 10 µM [7] [%] | growth at 0.01 µM [8] [%] | growth at 0.1 µM [9] [%] | growth at 0.01 µM [10] [%] | growth at 0.1 µM [11] [%] | growth at 100 µM [12] [%] | growth at 0.1 µM [13] [%] | growth at 1 µM [14] [%] | growth at 100 µM [15] [%] | growth at 0.1 µM [16] [%] | growth at 1 µM [17] [%] | growth at 1 µM [18] [%] | growth at 0.01 µM [19] [%] | growth at 100 µM [20] [%] | further results |
| --- | --- | --- | --- | --- | --- | --- | --- | --- | --- | --- | --- | --- | --- | --- | --- | --- | --- | --- | --- | --- | --- |
| COc1cc(-c2nn(-c3cccc(NC(=O)c4ccccc4)c3)cc2-c2ccncc2)ccc1Cl | 99 | 31 | 91 | 99 | 94 | 90 | 1 | 102 | 82 | 98 | 97 | 18 | 95 | 63 | 9 | 89 | 7 | 10 | 95 | 6 | growth at 10 µM [21]: 34%; growth at 0.1 µM [22]: 95%; growth at 0.01 µM [23]: 95%; growth at 100 µM [24]: -85%; growth at 10 µM [25]: 8%; growth at 0.1 µM [26]: 98%; growth at 0.1 µM [27]: 95%; growth at 0.01 µM [28]: 96%; growth at 0.1 µM [29]: 97%; growth at 100 µM [30]: 7%; growth at 100 µM [31]: 14%; growth at 10 µM [32]: -8%; growth at 10 µM [33]: -10%; growth at 0.1 µM [34]: 92%; growth at 1 µM [35]: 80%; growth at 10 µM [36]: -19%; growth at 100 µM [37]: 3%; growth at 0.01 µM [38]: 103% |
| COc1cc(-c2nn(-c3cccc(NC(=O)c4ccc(N5CCOCC5)c(C(F)(F)F)c4)c3)cc2-c2ccncc2)ccc1Cl | 29 | 33 | 92 | 100 | 78 | 60 | -13 | 109 | 52 | 95 | 106 | -9 | 80 | 47 | 2 | 71 | 8 | -11 | 98 | -23 | growth at 10 µM [21]: 14%; growth at 0.1 µM [22]: 92%; growth at 0.01 µM [23]: 97%; growth at 100 µM [24]: -85%; growth at 10 µM [25]: -14%; growth at 0.1 µM [26]: 90%; growth at 0.1 µM [27]: 75%; growth at 0.01 µM [28]: 99%; growth at 0.1 µM [29]: 81%; growth at 100 µM [30]: -4%; growth at 100 µM [31]: 10%; growth at 10 µM [32]: -26%; growth at 10 µM [33]: -2%; growth at 0.1 µM [34]: 58%; growth at 1 µM [35]: 58%; growth at 10 µM [36]: -32%; growth at 100 µM [37]: -5%; growth at 0.01 µM [38]: 96% |
